# PubChem BioAssay (NCI)
# Several values for one entry are separate records, joined by “and”; a condition that tells them apart may be missing. Equal values may be shown once.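 Values below derive from 48-hour exposures of cells grown in 96-well plates, with endpoints linearly interpolated between the two concentrations bracketing the appropriate inhibition level. At the GI50, growth is halved. Definition used: TGI = concentration required for complete inhibition of growth.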
# Tests used:
# Assay in all cases: growth of human tumour cells (NCI), 48 h
# [1] = system: CCRF-CEM leukemia
# [2] = system: HCT-15 colon
# [3] = system: LOX IMVI melanoma
# [4] = system: NCI-H23 lung
# [5] = system: OVCAR-4 ovarian
# [6] = system: RPMI-8226 leukemia
# [7] = system: SF-268 CNS
# [8] = system: SK-MEL-28 melanoma
# [9] = system: SK-MEL-5 melanoma
# [10] = system: SW-620 colon
SMILES,TGI [1] [µM],TGI [2] [µM],TGI [3],TGI [4] [µM],TGI [5],TGI [6] [µM],TGI [7] [µM],TGI [8],TGI [9] [µM],TGI [10],GI50 [1] [µM],GI50 [2] [µM],GI50 [3] [µM],GI50 [4] [µM],GI50 [5],GI50 [6] [µM],GI50 [7] [µM],GI50 [8] [µM],GI50 [9] [µM],GI50 [10] [µM]
Cn1c2c(c3ccccc31)CC1c3c(c4ccccc4n3C)CC21 (centres undefined),> 100,> 100,> 100 µM,> 100,> 100 µM,> 100,> 100,> 100 µM,> 100,> 100 µM,,,,,,,,,,
COc1cc2c3c(n(CCCNC(=O)OCC4c5ccccc5-c5ccccc54)c(=O)c2cc1OC)-c1cc2c(cc1/C3=C\CCNC(=O)OCC1c3ccccc3-c3ccccc31)OCO2,> 50,> 50,> 50 µM,9.54,> 50 µM,48.9,> 14,> 50 µM,> 50,> 50 µM,1.42,> 50,> 22.5,0.921,> 50 µM,> 26.3,1.48,> 50,> 50,> 24.1
COc1cc2c(c(OC)c1OC)-c1ccc(OC)c(=O)cc1[C@@H](NC(=O)c1ccccc1)CC2,> 100,,30 µM and 53.4 µM,2.32,30 µM and > 100 µM,> 80.7,33.1,30 µM and > 100 µM,,30 µM and > 81.4 µM,,0.0444,0.0105,,28.1 µM and 13.4 µM,,,< 0.003,0.00569,< 0.003
c1ccc2c(c1)ccn2CCc1c[nH]c2ccccc12,> 10,> 10,> 10 µM,> 10,> 10 µM,> 10,> 10,> 10 µM,> 10,> 10 µM,,,,,,,,,,
Cc1cc(S(=O)(=O)Nc2nnc(-c3ccccc3)c(-c3ccccc3)n2)c(SCC(N)=O)cc1Cl,77.4,> 100,85.1 µM,> 100,> 100 µM,86.6,> 100,> 100 µM,> 100,> 100 µM,29.3,> 100,34.6,78.7,41.5 µM,30.9,37.6,72.8,57.8,41.5
C1=CC2SSSC2C1 (centres undefined),> 100,> 100,> 100 µM,> 100,> 100 µM,> 100,> 100,> 100 µM,> 100,> 100 µM,,,,,,,,,,
O=C1OC(c2ccccc2)=N/C1=C\c1cccc2ccccc12,> 100,> 100,> 100 µM,> 100,> 100 µM,> 100,> 100,> 100 µM,> 100,> 100 µM,,,,,,,,,,
Cc1cccc(NC(=O)C(=O)C(C(=O)c2ccc3ccccc3c2)C2OC(=O)c3ccccc32)c1C (centres undefined),68.8,41.9,30.4 µM,59.1,33.7 µM,43.2,53.6,39 µM,25.9,24.2 µM,,,,,,,,,,
COC1=CC(=O)c2nc(-c3cccc(C)n3)[nH]c2C1=O,> 100,> 100,> 100 µM,> 100,50.3 µM,> 100,49.6,> 100 µM,36.4,54.8 µM,61.8,52.5,49.6,28.3,20.4 µM,27,24.7,31.7,15.9,21.4
Cc1ccc(C2=C(c3ccccc3)C(Br)(c3ccc(C)cc3)C(c3ccccc3)=C2c2ccc(C)cc2)cc1,> 100,> 100,> 100 µM,> 100,> 100 µM,> 100,> 100,> 100 µM,> 100,> 100 µM,,,,,,,,,,
COc1ccc(Nc2c3ccccc3nc3occc23)cc1,> 24.7,14.1,59.9 µM,> 27.6,> 100 µM,12.4,34,22.8 µM,13.4,39.5 µM,1.27,0.336,6.14,3.72,16.9 µM,1.12,3.68,3.06,1.32,2.9
N#CC(NNC(=O)Cc1ccccc1)c1c(O)ccc2ccccc12 (centres undefined),26.9,> 100,14.3 µM,37.8,51 µM,> 60.1,54.5,97.7 µM,15.7,> 100 µM,,,,,,,,,,
O=C1OC(C(O)CO)C(=O)C1=O (centres undefined),> 10000,> 10000,4990 µM,> 10000,> 10000 µM,8420,6600,> 10000 µM,> 10000,5080 µM,2940,3420,1950,4680,5580 µM,2460,2720,> 10000,> 10000,2070
CCOc1ccccc1NC(=O)CC(C(=O)OC)C(=O)C(=O)OC (centres undefined),> 100,> 100,> 100 µM,> 100,> 100 µM,> 100,> 100,> 100 µM,> 100,> 100 µM,,,,,,,,,,
CC(=O)CSCc1ccccn1,90.7,> 100,> 100 µM,> 100,> 100 µM,36.8,> 100,> 100 µM,> 100,> 100 µM,,,,,,,,,,
